Measured values taken from patent US6905706B2, “Medicinal herbal extract carpediol for treating depression” (Swedish Herbal Institute, priority 2002, dated 2005).
Where “and” joins values, the source holds several entries; their conditions need not be identical. Equal values may be shown once.

Experiment: Effect of co-administered extracts on the pharmacokinetics of theophylline in rats
Description: Carpediol spissum (Batch No Ex 20404); Swedish Herbal Institute, Gothenburg, Sweden) as described above in Example 1. […] It was analyzed for purity by HPLC, Capillary electrophoresis, ^1H-NMR and ^13C-NMR. • (e) Internal standard: Methyl-4-hydroxybenzoate 99%, F.W. 152.15 Aldrich. • (f) Water, demonized and distilled. • (g) Water for High Performance Capillary Electrophoresis (HPCE), HEWLETT-PACKARD. • (h) Buffer pH=9.3 for HPCE (50 mM Borate). • (i) 0.1N Sodium Hydroxide Solution for HPCE. • (j) Chloroform HPLC grade. • (k) 2-Propanol spectrophotometric grade. • (l) Methanol Chromasorv.
Animals—In this study, 144 time-mated male Wistar rats were used. Breeder: Institute of Fine Organic Chemistry of the National Academy of Science, Yerevan. The initial weight of the animals: 130-170 g (mean weight 149.93±12.4 g). […] All animals were clinically examined upon arrival and any animal showing signs of abnormality or disease was excluded. Animals considered unsuitable for the study were replaced before the start. No animal was replaced following the start of the study.
Dosage and Administration—An appropriate amount of herbal extract was dissolved in distilled water and given at 10:00-10:30 am by oral gavage. Suspensions were shaken gently before oral administration. Suspensions were prepared fresh every day. Control animals were given an appropriate volume of drinking water. Blood samples from rats receiving the carrier only were also analyzed.
Groups of six animals were treated orally with water (10 ml×2 times per day) for three days. 60 minutes after last administration of water, a solution of Aminophylline (10 ml/kg) was given to each animal in dose of 240 mg/kg (corresponding to 192 mg/kg of Theophylline) and blood samples were taken 0.25, 0.5, 1.0, 2.0, 4.0, 6.0 and 8.0 hours after the theophylline administration. A separate group of animals was used for each time point.
It was administered orally in a volume of 10 ml/kg of body weight. Freshly prepared extract was administered two times daily for 3 consecutive days. Single dose—25 mg/kg, daily dose—50 mg/kg. 60 minutes after last administration, a water solution of Aminophylline (10 ml/kg) was given to each animal in dose of 240 mg/kg (corresponding to 192 mg/kg of Theophylline) and blood samples were taken 0.25, 0.5, 1.0, 2.0, 4.0, 6.0 and 8.0 hours after the theophylline administration. A separate group of animals was used for each time point.
One tablet of Jarsin 300 was suspended in 10 ml of water and administered two times daily for 3 consecutive days. 60 minutes after last administration, water solution of Aminophylline (10 ml/kg) was given to each animal in dose of 240 mg/kg (corresponding to 192 mg/kg of Theophylline) and blood samples were taken 0.25, 0.5, 1.0, 2.0, 4.0, 6.0 and 8.0 hours after the theophylline administration. A separate group of animals was used for each time point.
Sampling of blood and sample preparation—Animals were sacrificed by laboratory guillotine. Following decapitation, blood was collected separately in centrifuge tubes and centrifuged at 3000 rpm for 10 min. Blood serum was separated and 50 μl was taken for theophylline assay. Conservation of the samples: the centrifuge tubes were closed with caps, frozen and stored in a freezer for 1-3 days prior to bio-assay.
Analytical Method: Capillary Electrophoresis—A modified capillary electrophoresis method was used, using an internal standard and as a mobile phase 50 mM borate buffer (pH 9.3) without SDS.
Pre-assay preparation—The Ramzan et al. method (52) of extraction of theophylline from serum was modified as follows. 50 μl of blood serum was added to 10 μl of an internal standard methanol solution (methyl-paraben, 60 μg/ml) in centrifuge tube to obtain final concentration of methyl paraben 10 μg/ml. The solution was vortexed vigorously for 10 sec and 1 ml of solvent system of isopropanol. and chloroform in a 5:95 ratio was added for extraction.

[1] = Group 1 (water control), rats, calculated by mean concentrations
[2] = Group 1 (water control), rats, mean of 6 series (column A)
[3] = Group 2 (CRE pretreatment), rats, calculated by mean concentrations
[4] = Group 2 (CRE pretreatment), rats, mean of 6 series (column A)
[5] = Group 3 (Jarsin 300 pretreatment), rats, calculated by mean concentrations
[6] = Group 3 (Jarsin 300 pretreatment), rats, mean of 6 series (column A)

SMILES: Cn1c(=O)c2[nH]cnc2n(C)c1=O [Theophylline, 1,3-dimethylxantin]
- Concentration of Theophylline in Rat Serum (Group 1 (water control), aminophylline 240 mg/kg p.o., 15 min, single rat): 181.11 µg/mL and 172.059 µg/mL and 225.306 µg/mL and 153.35 µg/mL and 146.67 µg/mL and 101.82 µg/mL
- Concentration of Theophylline in Rat Serum (Group 1 (water control), aminophylline 240 mg/kg p.o., 30 min, single rat): 135.41 µg/mL and 89.49 µg/mL and 50.10 µg/mL and 143.18 µg/mL and 337.56 µg/mL and 101.83 µg/mL
- Concentration of Theophylline in Rat Serum (Group 1 (water control), aminophylline 240 mg/kg p.o., 60 min, single rat): 138.11 µg/mL and 194.27 µg/mL and 255.06 µg/mL and 154.77 µg/mL and 231.79 µg/mL and 86.37 µg/mL
- Concentration of Theophylline in Rat Serum (Group 1 (water control), aminophylline 240 mg/kg p.o., 120 min, single rat): 57.30 µg/mL and 71.98 µg/mL and 61.23 µg/mL and 97.22 µg/mL and 56.61 µg/mL
- Concentration of Theophylline in Rat Serum (Group 1 (water control), aminophylline 240 mg/kg p.o., 240 min, single rat): 77.66 µg/mL and 94.86 µg/mL and 114.84 µg/mL and 61.03 µg/mL and 105.31 µg/mL and 169.15 µg/mL
- Concentration of Theophylline in Rat Serum (Group 1 (water control), aminophylline 240 mg/kg p.o., 360 min, single rat): 43.95 µg/mL and 42.46 µg/mL and 73.58 µg/mL and 77.92 µg/mL and 81.94 µg/mL and 31.38 µg/mL
- Concentration of Theophylline in Rat Serum (Group 1 (water control), aminophylline 240 mg/kg p.o., 480 min, single rat): 22.05 µg/mL and 69.25 µg/mL and 63.68 µg/mL and 44.98 µg/mL and 89.99 µg/mL and 16.09 µg/mL
- Clt of Theophylline [1]: 0.4642 mL/min
- Kel of Theophylline [1]: 0.149 h⁻¹
- Vd of Theophylline [1]: 0.1871 L
- Clt of Theophylline, Mean [2]: 0.4973 mL/min and 0.497 ± 0.055 mL/min
- Cmax of Theophylline, Mean [2]: 195.2 ± 32.9 µg/mL
- Kel of Theophylline, Mean [2]: 0.1638 h⁻¹ and 0.164 ± 0.02 h⁻¹
- MRT of Theophylline, Mean [2]: 6.6239 ± 0.70 h
- Vd of Theophylline, Mean [2]: 0.186 ± 0.015 L
- t1/2 of Theophylline, Mean [2]: 4.504 ± 0.47 h
- Clt of Theophylline (Group 1 (water control), rats, single series): 0.441 mL/min and 0.3881 mL/min and 0.4945 mL/min and 0.3453 mL/min and 0.6439 mL/min and 0.671 mL/min
- Concentration of Theophylline in Rat Serum (Group 2 (CRE pretreatment 3 days), aminophylline 240 mg/kg p.o., 15 min, single rat): 192.873 µg/mL and 144.71 µg/mL and 164.57 µg/mL and 161.40 µg/mL and 98.74 µg/mL and 8.06 µg/mL
- Concentration of Theophylline in Rat Serum (Group 2 (CRE pretreatment 3 days), aminophylline 240 mg/kg p.o., 30 min, single rat): 190.52 µg/mL and 145.07 µg/mL and 223.28 µg/mL and 30.54 µg/mL and 154.41 µg/mL and 81.52 µg/mL
- Concentration of Theophylline in Rat Serum (Group 2 (CRE pretreatment 3 days), aminophylline 240 mg/kg p.o., 60 min, single rat): 158.01 µg/mL and 189.11 µg/mL and 120.37 µg/mL and 158.89 µg/mL and 119.72 µg/mL
- Concentration of Theophylline in Rat Serum (Group 2 (CRE pretreatment 3 days), aminophylline 240 mg/kg p.o., 120 min, single rat): 205.63 µg/mL and 140.04 µg/mL and 180.859 µg/mL and 96.55 µg/mL and 68.74 µg/mL and 91.30 µg/mL
- Concentration of Theophylline in Rat Serum (Group 2 (CRE pretreatment 3 days), aminophylline 240 mg/kg p.o., 240 min, single rat): 89.87 µg/mL and 65.03 µg/mL and 61.82 µg/mL and 134.64 µg/mL and 148.86 µg/mL and 115.97 µg/mL
- Concentration of Theophylline in Rat Serum (Group 2 (CRE pretreatment 3 days), aminophylline 240 mg/kg p.o., 360 min, single rat): 35.31 µg/mL and 7.61 µg/mL and 20.21 µg/mL and 233.16 µg/mL and 91.61 µg/mL and 38.01 µg/mL
- Concentration of Theophylline in Rat Serum (Group 2 (CRE pretreatment 3 days), aminophylline 240 mg/kg p.o., 480 min, single rat): 7.16 µg/mL and 34.98 µg/mL and 45.36 µg/mL and 56.71 µg/mL and 33.96 µg/mL and 12.51 µg/mL
- Clt of Theophylline [3]: 0.502 mL/min
- Kel of Theophylline [3]: 0.2042 h⁻¹
- Vd of Theophylline [3]: 0.1475 L
- Clt of Theophylline, Mean [4]: 0.5670 mL/min and 0.567 ± 0.067 mL/min
- Kel of Theophylline, Mean [4]: 0.2706 h⁻¹ and 0.271 ± 0.035 h⁻¹
- Vd of Theophylline, Mean [4]: 0.130 ± 0.014 L
- Cmax of Theophylline (Group 2 (CRE pretreatment), rats, single series): 223.3 µg/mL and 161.4 µg/mL and 158.9 µg/mL and 119.7 µg/mL and 192.9 µg/mL
- Concentration of Theophylline in Rat Serum (Group 3 (Jarsin 300 pretreatment 3 days), aminophylline 240 mg/kg p.o., 15 min, single rat): 4.86 µg/mL and 5.81 µg/mL
- Concentration of Theophylline in Rat Serum (Group 3 (Jarsin 300 pretreatment 3 days), aminophylline 240 mg/kg p.o., 30 min, single rat): 25.01 µg/mL and 34.73 µg/mL and 27.80 µg/mL
- Concentration of Theophylline in Rat Serum (Group 3 (Jarsin 300 pretreatment 3 days), aminophylline 240 mg/kg p.o., 60 min, single rat): 23.33 µg/mL and 30.97 µg/mL and 34.52 µg/mL
- Concentration of Theophylline in Rat Serum (Group 3 (Jarsin 300 pretreatment 3 days), aminophylline 240 mg/kg p.o., 120 min, single rat): 16.13 µg/mL and 44.11 µg/mL and 20.84 µg/mL
- Concentration of Theophylline in Rat Serum (Group 3 (Jarsin 300 pretreatment 3 days), aminophylline 240 mg/kg p.o., 240 min, single rat): 4.46 µg/mL and 16.77 µg/mL and 19.04 µg/mL
- Concentration of Theophylline in Rat Serum (Group 3 (Jarsin 300 pretreatment 3 days), aminophylline 240 mg/kg p.o., 360 min, single rat): 5.85 µg/mL and 11.58 µg/mL
- Concentration of Theophylline in Rat Serum (Group 3 (Jarsin 300 pretreatment 3 days), aminophylline 240 mg/kg p.o., 480 min, single rat): 2.34 µg/mL and 5.71 µg/mL
- Clt of Theophylline [5]: 2.310 mL/min
- Kel of Theophylline [5]: 0.2022 h⁻¹
- Vd of Theophylline [5]: 0.6853 L
- Clt of Theophylline, Mean [6]: 2.671 mL/min and 2.671 ± 0.637 mL/min
- Kel of Theophylline, Mean [6]: 0.2204 h⁻¹ and 0.220 ± 0.033 h⁻¹
- Vd of Theophylline, Mean [6]: 0.722 ± 0.091 L
- Cmax (male, Wistar, rat, in vivo, 240 mg/kg, Cmax of Theophylline, Group 1 (water control), rats, calculated by mean concentrations, 60 minutes): 177 µg/mL
- concentration at 120 min (male, Wistar, rat, in vivo, 240 mg/kg, Concentration of Theophylline in Rat Serum, Group 1 (water control), aminophylline 240 mg/kg p.o., 120 min, single rat): 96.3 µg/mL
- concentration at 15 min (male, Wistar, rat, in vivo, 240 mg/kg, Concentration of Theophylline in Rat Serum, Mean, Group 1 (water control), aminophylline 240 mg/kg p.o., 15 min, mean n=6): 163 µg/mL
- concentration at 30 min (male, Wistar, rat, in vivo, 240 mg/kg, Concentration of Theophylline in Rat Serum, Mean, Group 1 (water control), aminophylline 240 mg/kg p.o., 30 min, mean n=6): 143 µg/mL
- concentration at 60 min (male, Wistar, rat, in vivo, 240 mg/kg, Concentration of Theophylline in Rat Serum, Mean, Group 1 (water control), aminophylline 240 mg/kg p.o., 60 min, mean n=6): 177 µg/mL
- concentration at 120 min (male, Wistar, rat, in vivo, 240 mg/kg, Concentration of Theophylline in Rat Serum, Mean, Group 1 (water control), aminophylline 240 mg/kg p.o., 120 min, mean n=6): 73.4 µg/mL
- concentration at 240 min (male, Wistar, rat, in vivo, 240 mg/kg, Concentration of Theophylline in Rat Serum, Mean, Group 1 (water control), aminophylline 240 mg/kg p.o., 240 min, mean n=6): 104 µg/mL
- concentration at 360 min (male, Wistar, rat, in vivo, 240 mg/kg, Concentration of Theophylline in Rat Serum, Mean, Group 1 (water control), aminophylline 240 mg/kg p.o., 360 min, mean n=6): 58.5 µg/mL
- concentration at 480 min (male, Wistar, rat, in vivo, 240 mg/kg, Concentration of Theophylline in Rat Serum, Mean, Group 1 (water control), aminophylline 240 mg/kg p.o., 480 min, mean n=6): 51 µg/mL
